Experimental data reported in patent EP0714912B1, “GMP-140 ligand” (THE BOARD OF REGENTS OF THE UNIVERSITY OF OKLAHOMA, priority 1990, dated 1992).

Key:
immobilized GMP-140 [1] = assay: ELISA (avidin detection) of binding of biotinylated monoclonal antibodies G1, G2, G3 to immobilized GMP-140 in presence of soluble peptide; set-up: species or system human; settings: for % Binding of Biotinylated MAbs G3: peptide 1.5 mM added to biotinylated mAb G3 (2.5 micrograms/ml) before addition to immobilized GMP-140; for % Binding of Biotinylated MAbs G1: peptide 1.5 mM added to biotinylated mAb G1 (2.5 micrograms/ml) before addition to immobilized GMP-140; for % Binding of Biotinylated MAbs G2: peptide 1.5 mM added to biotinylated mAb G2 (2.5 micrograms/ml) before addition to immobilized GMP-140
Experimental: Based on competitive ELISAs with the purified protein, G1, G2, and G3 each recognize distinct or only partially overlapping epitopes. 1.5 mM peptide was added to biotinylated mAb at a concentration of 2.5 micrograms/ml, which were then added to the wells containing GMP-140, as described in example 1. Binding was measured by an ELISA with an avidin detection system.
The monoclonal antibodies were biotinylated as follows: to 0.5 ml of purified IgG antibody (1 mg/ml in PBS, pH 7.4) was added 50 µl of 3.2 mM N-hydroxysuccinimide biotin in dimethyl sulfoxide and 50 µl of 1 M NaHCO3. After a 2 hour incubation at room temperature in the dark, the reaction was stopped with 50 µl of 1 M NH4Cl. The biotinylated antibody was then separated from other components by gel filtration on a PD-10 column equilibrated in PBS. The ELISA was performed as follows; all steps were performed at room temperature.
Biotinylated antibody (2.5 µg/ml) with or without 1.5 mM peptide was incubated with wells coated with GMP-140 as described in example 1. After a 2 hour incubation, the antibody was removed, the wells were washed, and 0.1 ml of horseradish peroxidase-conjugated stepavidin (Pierce), diluted 1:1,000 in HBSS/HSA, was added for 30 min. The wells were then washed and 0.1 ml of peroxidase substrate (Pierce) was added for 15 min. The color reaction was read at 405 nm.

immobilized GMP-140 [2] = assay: Neutrophil adhesion to purified GMP-140 immobilized on plastic wells (myeloperoxidase read-out); type: cell-based, human; settings: for inhibition of neutrophil adhesion to immobilized GMP-140 by peptides: peptide screen, result in words; for inhibition of binding of neutrophils to immobilized GMP-140, dependence on concentration: 0.1 mM to 1.5 mM peptide, Figure 2
Source text: Peptides were screened for their ability to inhibit neutrophil adhesion to purified GMP-140 immobilized on plastic wells, using the assay described by Geng, et al., Nature 343, 757-760 (1990).
Human neutrophils are isolated from heparinized whole blood by density gradient centrifugation on Mono-Poly resolving media, Flow Laboratories. Neutrophil suspensions are greater than 98% pure and greater than 95% viable by trypan blue exclusion. For adhesion assays, neutrophils are suspended at a concentration of 2 x 10^6 cells/ml in Hanks' balanced salt solution containing 1.26 mM Ca^2+ and 0.81 mM Mg^2+ (HBSS, Gibco) with 5 mg/ml human serum albumin (HBSS/HSA). Adhesion assays are conducted in triplicate in 96-well microtiter plates, Corning, incubated at 4°C overnight with 50 microliters of various protein solutions.
GMP-140 is plated at 5 micrograms/ml and the control proteins: human serum albumin (Alb), platelet glycoprotein IIb/IIIa (IIb), von Willebrand factor (vWF), fibrinogen (FIB), thrombomodulin (TM), gelatin (GEL) or human serum (HS), are added at 50 micrograms/ml. All wells are blocked for 2 h at 22°C with 300 microliters HBSS containing 10 mg/ml HSA, then washed three times with HBSS containing 0.1% Tween-20 and once with HBSS. Cells (2 x 10^5 per well were added to the wells and incubated at 22°C for 20 min. The wells were then filled with HBSS/HSA, sealed with acetate tape (Dynatech), and centrifuged inverted at 150 g for 5 min. After discarding nonadherent cells and supernates, the contents of each well are solubilized with 200 microliters 0.5% hexadecyltrimethylammonium bromide, Sigma, in 50 mM potassium phosphate, pH 6.0, and assayed for myeloperoxidase activity, Ley, et al., Blood 73, 1324-1330 (1989). The number of cells bound was derived from a standard curve of myeloperoxidase activity versus numbers of cells. Under all assay conditions, the cells released less than 5% of total myeloperoxidase and lactate dehydrogenase. Results are presented in Table I. 100% adhesion is that seen in the presence of the C-terminal peptide (amino acid residues 761-777 of GMP-140) as a negative control; this value is the same as controls in which neither peptide nor antibody is added to the cells. Inhibition is read as a lower percent adhesion, so that a value of 5% means that 95% of the specific adhesion was inhibited.
Peptides from the lectin-like domain of GMP-140 were assayed for their ability to inhibit adhesion of neutrophils to immobilized GMP-140 in the assay described in example 1. Concentrations tested ranged from 0.1 mM to 1.5 mM.

neutrophils = assay: Specific binding of [125I]GMP-140 to neutrophils (enzyme-treated cells or with competitors); set-up: species or system human; settings: 6.5 µM of conjugate, 65 µM of oligosaccharide; coupled to bovine serum albumin at about 10:1

Substance	% Binding of Biotinylated MAbs G3 (immobilized GMP-140 [1]) [%]	% Binding of Biotinylated MAbs G1 (immobilized GMP-140 [1]) [%]	% Binding of Biotinylated MAbs G2 (immobilized GMP-140 [1]) [%]	inhibition of neutrophil adhesion to immobilized GMP-140 by peptides (immobilized GMP-140 [2])	inhibition of GMP-140 binding by multivalent neoglycoconjugates (neutrophils)	inhibition of binding of neutrophils to immobilized GMP-140, dependence on concentration (immobilized GMP-140 [2])	inhibition of neutrophil adhesion to immobilized GMP-140 by peptides (immobilized GMP-140 [2]; listed as amino acids 66 to 78)
LECTIN 19-30: synthetic peptide, amino acids 19-30 of the lectin domain of GMP-140 (CQNRYTDLVAIQ; UniProt P16109 60-71, looked up, fragment)	54	–	–	–	–	–	–
sialyl Le^x	–	–	–	–	failed to inhibit binding	–	–
amino acids 23-30: peptide from the GMP-140 lectin domain, amino acids 23-30 (YTDLVAIQ; UniProt P16109 64-71, looked up, fragment)	–	–	–	–	–	inhibited binding in a dose-dependent manner	–
amino acids 73-83: peptide from the GMP-140 lectin domain, amino acids 73-83 (AENWADNEPNN; UniProt P16109 114-124, looked up, fragment)	–	–	–	–	–	inhibited binding in a dose-dependent manner	–
amino acids 66-78: overlapping peptide of amino acids 66-78 of the GMP-140 lectin domain (KKALTNEAENWAD; UniProt P16109 107-119, looked up, fragment)	–	–	–	inhibited adhesion	–	inhibited binding in a dose-dependent manner	very active
REPEATS 544-556: control peptide from one of the consensus repeats of GMP-140, amino acids 544-556	111	107	96	–	–	–	–
amino acids 54-63: peptide from the GMP-140 lectin domain, amino acids 54-63 (RKNNKTWTWV; UniProt P16109 95-104, looked up, fragment)	–	–	–	–	–	inhibited binding in a dose-dependent manner	–
LECTIN 73-89: synthetic peptide, amino acids 73-89 of the lectin domain of GMP-140 (AENWADNEPNNKRNNED; UniProt P16109 114-130, looked up, fragment)	94	95	99	inhibited adhesion	–	–	–

More lines, main results first:

% Binding of Biotinylated MAbs G3 (immobilized GMP-140 [1]) [%]	% Binding of Biotinylated MAbs G1 (immobilized GMP-140 [1]) [%]	% Binding of Biotinylated MAbs G2 (immobilized GMP-140 [1]) [%]	Substance	inhibition of neutrophil adhesion to immobilized GMP-140 by peptides (immobilized GMP-140 [2])	inhibition of GMP-140 binding by multivalent neoglycoconjugates (neutrophils)	inhibition of binding of neutrophils to immobilized GMP-140, dependence on concentration (immobilized GMP-140 [2])	inhibition of neutrophil adhesion to immobilized GMP-140 by peptides (immobilized GMP-140 [2]; listed as amino acids 66 to 78)
104	106	125	LECTIN 54-72: synthetic peptide, amino acids 54-72 of the lectin domain of GMP-140 (RKNNKTWTWVGTKKALTNE; UniProt P16109 95-113, looked up, fragment)	inhibited adhesion	–	–	–
96	97	93	LECTIN 91-108: synthetic peptide, amino acids 91-108 of the lectin domain of GMP-140 (VEIYIKSPSAPGKWNDEH; UniProt P16109 132-149, looked up, fragment)	–	–	–	–
109	97	104	EGF 134-141: synthetic peptide, amino acids 134-141 of the EGF domain of GMP-140 (LETIGNYT; UniProt P16109 175-182, looked up, fragment)	–	–	–	–
104	92	92	LECTIN/EGF 118-126: synthetic peptide, amino acids 118-126 of GMP-140 (lectin/EGF domains) (YTASCQDMS; UniProt P16109 159-167, looked up, fragment)	–	–	–	–
104	100	119	TRANSMEMBRANE 755-761: control peptide from the transmembrane region of GMP-140, amino acids 755-761 (RKRFRQK; UniProt P16109 796-802, looked up, fragment)	–	–	–	–
108	94	92	EGF 145-158: synthetic peptide, amino acids 145-158 of the EGF domain of GMP-140 (YPGFYGPECEYVRE; UniProt P16109 186-199, looked up, fragment)	–	–	–	–
104	107	92	EGF 128-132: synthetic peptide, amino acids 128-132 of the EGF domain of GMP-140 (SKQGE; UniProt P16109 169-173, looked up, fragment)	–	–	–	–
108	98	100	LECTIN 110-116: synthetic peptide, amino acids 110-116 of the lectin domain of GMP-140 (LKKKHAL; UniProt P16109 151-157, looked up, fragment)	–	–	–	–
100	100	100	C-TERMINUS 761-777: C-terminal peptide (amino acid residues 761-777 of GMP-140) as a negative control (KDDGKCPLNPHSHLGTY; UniProt P16109 802-818, looked up, fragment) [reference compound]	–	–	–	–
